Results reported in ChEMBL document CHEMBL5512603, “Development of de-novo coronavirus 3-chymotrypsin-like protease (3CLpro) inhibitors since COVID-19 outbreak: A strategy to tackle challenges of persistent virus infection” (Eur J Med Chem, 2024).

Tests used:
[1] = target: T1, Replicase polyprotein 1ab (Severe acute respiratory syndrome coronavirus 2, UniProt P0DTD1); assay: Inhibition of recombinant SARS-CoV2 6xHis-tag-Main protease containing modified HRV-3C expressed in Escherichia coli using Mca-AVLQSGFR-K(Dnp)K peptide substrate assessed as fluorescent intensity
[2] = Half life in rat; format: ADME; settings: in vivo
SARS-CoV-2 [3] = assay: Anti-viral activity against SARS-CoV-2 infected in K18-hACE2 mouse assessed as reduction in virus in lung at 100 mg/kg, ip twice daily measured after day 3; format: functional; settings: Severe acute respiratory syndrome coronavirus 2, 72 h, time 3 day
SARS-CoV-2 [4] = assay: Antiviral activity against SARS-CoV-2 infected in African green monkey Vero cells; format: functional, organism-based; settings: Severe acute respiratory syndrome coronavirus 2, Vero
SARS-CoV-2 [5] = assay: Antiviral activity against SARS-CoV-2 Canada/Vido 01/2020 infected in African green monkey Vero E6 cells assessed as inhibition of viral replication incubated for 48 hrs by plaque reduction assay; format: functional, organism-based; settings: Severe acute respiratory syndrome coronavirus 2, Canada/Vido 01/2020, Vero C1008, 48 h
[6] = target: T1, Replicase polyprotein 1ab; assay: Inhibition of recombinant SARS-CoV-2 3CLp using fluorogenic substrate by microplate reader
[7] = Oral bioavailability in Sprague-Dawley rat at 10 mg/kg; format: ADME, organism-based; settings: in vivo
SARS-CoV-2 [8] = assay: Antiviral activity against SARS-CoV-2; format: functional, organism-based; settings: Severe acute respiratory syndrome coronavirus 2
[9] = target: T1, Replicase polyprotein 1ab; assay: Inhibition of SARS-CoV-2 recombinant 3CLpro using fluorogenic substrate (Dabcyl-KTSAVLQ]SGFRK M-E
[10] = target: Protein cereblon/Replicase polyprotein 1ab (Severe acute respiratory syndrome coronavirus 2, UniProt P0DTD1+Q96SW2); assay: PROTAC activity at SARS-CoV-2 Main protease/CRBN (unknown origin) in SARS-CoV-2 infected african green monkey Vero cell assessed as inhibition of virus-mediated cytopathic effect measured after 72 hrs; format: cell-based
Chain of Protein cereblon/Replicase polyprotein 1ab (Q96SW2 whole entry, other chains not shown): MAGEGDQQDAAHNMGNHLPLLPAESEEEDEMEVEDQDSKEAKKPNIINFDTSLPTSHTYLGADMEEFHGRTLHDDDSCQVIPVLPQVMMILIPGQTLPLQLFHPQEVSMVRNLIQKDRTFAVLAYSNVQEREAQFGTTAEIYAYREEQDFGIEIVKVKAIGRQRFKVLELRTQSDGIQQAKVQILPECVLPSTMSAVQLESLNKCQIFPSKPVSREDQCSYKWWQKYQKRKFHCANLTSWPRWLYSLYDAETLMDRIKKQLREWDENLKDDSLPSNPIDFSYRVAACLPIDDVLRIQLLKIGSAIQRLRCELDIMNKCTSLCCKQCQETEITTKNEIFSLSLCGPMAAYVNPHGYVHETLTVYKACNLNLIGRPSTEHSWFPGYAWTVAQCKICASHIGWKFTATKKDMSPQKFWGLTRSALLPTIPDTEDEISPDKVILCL

SARS-CoV-2 [11] = assay: Antiviral activity against wild type SARS-CoV-2 infected in human Calu-3 cells; format: functional, organism-based; settings: Severe acute respiratory syndrome coronavirus 2, Calu-3
[12] = target: von Hippel-Lindau disease tumor suppressor-SARS-Cov-2 polyprotein (Severe acute respiratory syndrome coronavirus 2, UniProt P0DTD1+P40337); assay: PROTAC activity at SARS-CoV-2 Main protease/VHL (unknown origin) in SARS-CoV-2 infected african green monkey Vero cell assessed as inhibition of virus-mediated cytopathic effect measured after 72 hrs; format: cell-based
Chain of von Hippel-Lindau disease tumor suppressor-SARS-Cov-2 polyprotein (P40337 whole entry, other chains not shown): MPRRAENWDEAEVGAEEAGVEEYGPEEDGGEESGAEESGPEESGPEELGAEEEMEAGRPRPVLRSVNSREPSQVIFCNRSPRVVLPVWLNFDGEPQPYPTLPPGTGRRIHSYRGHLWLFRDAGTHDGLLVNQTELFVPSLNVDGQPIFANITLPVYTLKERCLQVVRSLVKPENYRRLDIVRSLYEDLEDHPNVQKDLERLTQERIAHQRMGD

[13] = Oral bioavailability in Sprague-Dawley rat at 20 mg/kg; format: ADME, organism-based; settings: in vivo
SARS-CoV-2 [14] = assay: Antiviral activity against SARS-CoV-2 infected in HAPEpIC cells at 0.01 MOI assessed as reduction in viral RNA copies by RT-qPCR analysis; format: functional, organism-based; settings: Severe acute respiratory syndrome coronavirus 2
[15] = Bioavailability in Sprague-Dawley rat at 20 mg/kg, ip; format: ADME, organism-based; settings: in vivo
SARS-CoV-2 [16] = assay: Antiviral activity against SARS-CoV-2 infected in African green monkey Vero E6 cells at 0.1 MOI assessed as inhibition of virus induced cytopathic effect by CCK8 assay; format: functional, organism-based; settings: Severe acute respiratory syndrome coronavirus 2, Vero C1008
[17] = target: T1, Replicase polyprotein 1ab; assay: Inhibition of SARS-CoV-2 3CLp using fluorescent substrate by FRET assay
SARS-CoV-2 [18] = assay: Antiviral activity against SARS-CoV-2 infected in African green monkey Vero E6 cells assessed as inhibition of virus induced cytopathic effect by CellTiter-Glo luminescent cell viability assay; format: functional, organism-based; settings: Severe acute respiratory syndrome coronavirus 2, Vero C1008
[19] = target: T1, Replicase polyprotein 1ab; assay: Inhibition of 2019-nCoV-2 3CLp using fluorescent substrate by FRET assay
[20] = Cytotoxicity against African green monkey Vero E6 cells; format: toxicity, cell-based, Vero C1008; settings: chlorocebus sabaeus

SMILES: COC(=O)Cn1sc2ccccc2c1=O
- IC50 [1]: 2.83 µM

SMILES: O=C[C@H](C[C@@H]1CCNC1=O)NC(=O)[C@H](CC1CCCCC1)NC(=O)c1cc2ccccc2[nH]1
- half-life [2]: > 4 h
- inhibition in vivo at 100 mg/kg (SARS-CoV-2 [3]): 100%

SMILES: C[C@H](NC(=O)[C@@H](c1cccnc1)N(C(=O)C(Cl)Cl)c1ccc(-c2ccccc2)cc1)c1ccccc1
- EC50 (SARS-CoV-2 [4]): 0.9 µM

SMILES: COc1cccc2[nH]c(C(=O)N[C@@H](CC(C)C)C(=O)N[C@H](C#N)C[C@@H]3CCNC3=O)cc12
- EC50 (SARS-CoV-2 [5]): > 5 µM

SMILES: O=C[C@H](C[C@@H]1CCNC1=O)NC(=O)[C@@H]1[C@H]2CCC[C@H]2CN1C(=O)COc1ccc(Cl)c(Cl)c1
- IC50 [6]: 0.019 µM
- bioavailability [7]: 5.1%

SMILES: O=C[C@H](C[C@@H]1CCNC1=O)NC(=O)[C@@H]1[C@H]2CCC[C@H]2CN1C(=O)COc1ccc(Cl)cc1
- IC50 [6]: 0.009 µM
- bioavailability [7]: 7.2%

SMILES: CC1(C)[C@@H]2[C@@H](C(=O)N[C@H](C=O)C[C@@H]3CCNC3=O)N(C(=O)COc3ccc(Cl)cc3)C[C@@H]21
- IC50 [6]: 0.009 µM
- bioavailability [7]: 4.8%

SMILES: COc1cc(O)c2c(c1)O[C@H](c1cc(O)c(O)c(O)c1)[C@@H](O)C2=O
- EC50 (SARS-CoV-2 [8]): 11.5 µM

SMILES: CC1(C)[C@@H]2[C@@H](C(=O)N[C@H](C=O)C[C@@H]3CCNC3=O)N(C(=O)COc3ccc(Cl)cc3Cl)C[C@@H]21
- IC50 [6]: 0.01 µM
- bioavailability [7]: 4.1%

SMILES: COc1cc(O)c2c(=O)c(O)c(-c3cc(O)c(O)c(O)c3)oc2c1
- EC50 (SARS-CoV-2 [8]): 12.6 µM

SMILES: C[C@H](NC(=O)[C@@H](c1cccnc1)N(C(=O)C(Br)(Br)Br)c1ccc(-c2ccccc2)cc1)c1ccccc1
- EC50 (SARS-CoV-2 [4]): 0.58 µM

SMILES: CNC(=O)c1cc(Br)cc([N+](=O)[O-])c1N[C@H]1CCCC[C@H]1NC(=O)c1cncc2cc(O)ccc12
- IC50 [9]: 120 µM

SMILES: O=c1c(O)c(-c2cc(O)c(O)c(O)c2)oc2cc(OP(=O)(Oc3ccccc3)Oc3ccccc3)cc(O)c12
- EC50 (SARS-CoV-2 [8]): 3.15 µM

SMILES: Cc1c(COC(=O)N[C@@H](CC(C)C)C(=O)N[C@@H](C[C@@H]2CCNC2=O)C(O)S(=O)(=O)O)nnn1CCOCCOCCOCCC(=O)Nc1cccc2c1C(=O)N(C1CCC(=O)NC1=O)C2=O (some centres not stated)
- EC50 [10]: 2.15 µM

SMILES: COc1ccc(/C=C(\C#N)C(=O)N(c2ccc(-c3ccccc3)cc2)[C@@H](C(=O)N[C@@H](C)c2ccccc2)c2cccnc2)cc1
- EC50 (SARS-CoV-2 [11]): 6.47 µM

SMILES: Cc1ncsc1-c1ccc(CNC(=O)[C@@H]2C[C@@H](O)CC2C(=O)[C@@H](NC(=O)CCC(=O)NCCOCCn2nnc(COC(=O)N[C@@H](CC(C)C)C(=O)N[C@@H](C[C@@H]3CCNC3=O)C(O)S(=O)(=O)O)c2C)C(C)(C)C)cc1 (some centres not stated)
- EC50 [12]: 10.1 µM

SMILES: Cc1ncsc1-c1ccc(CNC(=O)[C@@H]2C[C@@H](O)CN2C(=O)[C@@H](NC(=O)CCOCCOCCOCCn2nnc(COc3ccc(OC(=O)N[C@@H](CC(C)C)C(=O)N[C@@H](C[C@@H]4CCNC4=O)C(O)S(=O)(=O)O)cc3)c2C)C(C)(C)C)cc1 (some centres not stated)
- EC50 [12]: 0.21 µM

SMILES: CNC(=O)[C@@H](Cc1cccc(F)c1)NC(=O)C1CN(C(=O)c2cncc3cccc(O)c23)CCN1Cc1ccc(Cl)cc1Cl (some centres not stated)
- IC50 [9]: 165 µM

SMILES: CC1(C)[C@@H]2[C@H]1CN(C(=O)COc1ccc(OC(F)(F)F)cc1)[C@H]2C(=O)N[C@@H](C=O)C[C@H]1CCNC1=O
- bioavailability [13]: 11.2%
- EC50 (SARS-CoV-2 [14]): 0.0012 µM
- bioavailability [15]: 78%
- EC50 (SARS-CoV-2 [16]): 0.86 µM

SMILES: CCC[C@H]1C(=O)N2C[C@]3(C[C@H]2C#N)C(=O)Nc2ccc(cc23)CCCCCN1C(=O)c1cc2c(F)cc(F)c(F)c2[nH]1
- IC50 [17]: < 0.1 µM
- EC50 (SARS-CoV-2 [18]): < 0.1 µM

SMILES: CC(C)[C@H]1C(=O)N2C[C@]3(C[C@H]2C#N)C(=O)Nc2ccc(cc23)CCCCCN1C(=O)c1cc2c(F)cc(F)c(F)c2[nH]1
- IC50 [17]: < 0.1 µM
- EC50 (SARS-CoV-2 [18]): < 0.1 µM

SMILES: CC(C)(C)NC(=O)[C@@H](c1cccnc1)N(C(=O)c1cnco1)c1ccc(-c2ccccc2)cc1
- IC50 [19]: 4.97 µM
- CC50 [20]: 67 µM

SMILES: N#C[C@@H]1C[C@]23CN1C(=O)[C@H](c1ccccc1)N(C(=O)C1CN(c4ccc(F)cc4)N=N1)CCCCCc1ccc(c2c1)NC3=O (some centres not stated)
- IC50 [17]: < 0.1 µM
- EC50 (SARS-CoV-2 [18]): > 1 µM

SMILES: C[C@H](NC(=O)[C@@H](c1cccnc1)N(C(=O)CC#N)c1ccc(-c2ccccc2)cc1)c1ccccc1
- IC50 [17]: 0.5 µM
- EC50 (SARS-CoV-2 [11]): 2.92 µM
